Like-named read-outs stand apart in the source and are kept apart here. Square brackets hold non-standard residues; d marks the D form. Ends that are not written are not given here. Peptide text beside a SMILES is read from it. * marks the point of attachment. Phe(4-NO2) = N[C@@H](Cc1ccc([N+](=O)[O-])cc1)C(=O)O; Palmitoyl = CCCCCCCCCCCCCCCC(=O)*; Myristoyl = CCCCCCCCCCCCCC(=O)*; X1 = CONC(=O)[C@H](Cc1ccccc1)N*; Nle = CCCC[C@H](N)C(=O)O; Sar = CNCC(=O)O
Key:
rat PrRP receptor = target: T1, rat PrRP receptor (Rattus norvegicus, UniProt Q64121); assay: Competitive binding in RC-4B/C rat pituitary cells (125I-rat PrRP31); details: for Ki: RC-4B/C cells, displacement of 125I-rat PrRP31, read-out: Ki, RC-4B/C rat pituitary cells ^25I-rat PrRP31; for % of PrRP31, RC-4B/C rat pituitary cells: affinity relative to PrRP31
T1 construct: host or cells: RC-4B/C rat pituitary cell line
T1 sequence (Q64121 1-370): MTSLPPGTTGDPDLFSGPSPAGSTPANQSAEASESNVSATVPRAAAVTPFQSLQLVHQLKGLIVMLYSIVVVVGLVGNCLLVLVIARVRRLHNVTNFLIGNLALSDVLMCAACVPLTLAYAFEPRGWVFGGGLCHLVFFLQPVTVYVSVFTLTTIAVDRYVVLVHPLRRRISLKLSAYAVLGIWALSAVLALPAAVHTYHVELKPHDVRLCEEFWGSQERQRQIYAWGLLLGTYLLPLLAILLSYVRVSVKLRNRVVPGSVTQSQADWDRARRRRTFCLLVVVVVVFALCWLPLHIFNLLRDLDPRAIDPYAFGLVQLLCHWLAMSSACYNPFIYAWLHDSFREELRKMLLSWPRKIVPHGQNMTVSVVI
Experimental: (§1) Competitive binding experiments were performed according to Motulsky and Neubig (Motulsky, A., et al., “Analyzing radioligand binding data,” Curr Protoc Neurosci, Chapter 7, Unit 7.5, 2002). Binding experiments were conducted with rat pituitary cells, and with Chinese Hamster Ovary (CHO) cells as follows:
The rat pituitary cell line RC-4B/C (ATCC, Manassas, USA) was grown on 24-well plates which had their bottom coated with polyethyleneimine. The cells were grown to the optimal density of 300-450 thousand cells per well. The following agents were used for the experiment: binding buffer (20 mmol·l^−1 HEPES, Ph 7.4; 118 mmol·l^−1 NaCl, 4.7 mmol·l^−1 KCl, 5 mmol·l^−1 MgCl2, 5.5 mmol·l^−1 glucose, 1 mg/ml BSA, 0.1 BPTI), unlabeled analogs of PrRP (i.e. the analog being tested) at a final concentration between 10^−11 to 10^−4 mol·l^−1, and rat ^125I-PrRP31 (labeled with radioactive Iodine-125) at a final concentration of […] (Maixnerová et al., 2011).
(§2) Plates were incubated for 60 minutes at room temperature. After incubation, the cells were solubilized in 0.1 mol/l solution of NaOH, and the radioactivity bound to the cells was counted using a γ-counter. The experiments were performed in duplicate, and repeated at least three times.
(§3) Graph Pad Prism Software (San Diego, Calif., USA) was used for evaluating the competitive binding experiments. Nonlinear regression was performed using a onsite binding model.

[1] = target: T2, human PrRP receptor GPR10 (Homo sapiens, UniProt P49683); assay: Competitive binding in CHO cells transfected with human GPR10 (human 125I-PrRP31); details: for % of PrRP31, GPR10 human receptor transfected in CHO cells: affinity relative to PrRP31
T2 construct: host or cells: CHO cells
T2 sequence (P49683 1-370): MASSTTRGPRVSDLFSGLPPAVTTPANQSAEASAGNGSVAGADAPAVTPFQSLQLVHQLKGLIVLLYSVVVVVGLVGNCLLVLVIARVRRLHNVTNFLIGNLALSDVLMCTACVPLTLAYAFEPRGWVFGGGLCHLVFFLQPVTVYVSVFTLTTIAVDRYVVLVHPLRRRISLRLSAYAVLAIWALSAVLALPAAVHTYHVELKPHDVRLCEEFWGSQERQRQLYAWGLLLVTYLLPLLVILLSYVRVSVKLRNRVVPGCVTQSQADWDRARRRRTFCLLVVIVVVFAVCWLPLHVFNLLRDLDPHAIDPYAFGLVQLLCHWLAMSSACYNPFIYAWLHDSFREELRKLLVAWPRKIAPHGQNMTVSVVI
Experimental: as §1
CHO cells transfected with human PrRP receptor GPR10 (Perkin Elmer, USA) were grown on 24-well plates coated with polyethyleneimine. The cells were grown to the optimal density of 40-80 thousand cells per well. The following agents were used for the experiment: binding buffer (25 mmol·l^−1 Tris, pH 7.4; 118 mmol·l^−1 NaCl, 10 mmol·l^−1 MgCl2, 10 mmol·l^−1 CaCl2, 5.5 mmol·l^−1 glucose, 0.5 mg/ml BSA), unlabeled analogs of PrRP (i.e. the analog being tested) at a final concentration between 10^−11 to 10^−4 mol·l^−1, and radiolabeled human ^125I-PrRP31 at a final concentration of 5×10^−11 mol·l^−1.
as §2, §3

[2] = CHO cells, human 125I-PrRP31, read-out: Ki, GPR10 human receptor transfected in CHO cells

Compound: CCCCCCCCCCCCCC(=O)N[C@@H](CO)C(=O)N[C@@H](CCCNC(=N)N)C(=O)N[C@@H](C)C(=O)N[C@@H](Cc1c[nH]cn1)C(=O)N[C@@H](CCC(N)=O)C(=O)N[C@@H](Cc1c[nH]cn1)C(=O)N[C@@H](CO)C(=O)N[C@@H](CCCC)C(=O)N[C@@H](CCC(=O)O)C(=O)N[C@H](C(=O)N[C@@H](CCCNC(=N)N)C(=O)N[C@H](C(=O)N1CCC[C@H]1C(=O)N[C@@H](CC(=O)O)C(=O)N[C@H](C(=O)N[C@@H](CC(N)=O)C(=O)N1CCC[C@H]1C(=O)N[C@@H](C)C(=O)N[C@@H](Cc1c[nH]c2ccccc12)C(=O)N[C@@H](Cc1ccc(O)cc1)C(=O)N[C@H](C(=O)NCC(=O)N[C@@H](CCCNC(=N)N)C(=O)NCC(=O)N[C@H](C(=O)N[C@@H](CCCNC(=N)N)C(=O)N1CCC[C@H]1C(=O)N[C@H](C(=O)NCC(=O)N[C@@H](CCCNC(=N)N)C(=O)N[C@@H](Cc1ccc([N+](=O)[O-])cc1)C(N)=O)C(C)C)[C@@H](C)CC)[C@@H](C)O)[C@@H](C)CC)[C@@H](C)O)[C@@H](C)O [Analog 17] (Myristoyl-SRAHQHS[Nle]ETRTPDINPAWYTGRGIRPVGR[Phe(4-NO2)]-NH2)
- Ki (rat PrRP receptor): 0.00197 ± 0.00126 µM
- % of PrRP31, RC-4B/C rat pituitary cells (rat PrRP receptor): 250%
- Ki [1, 2]: 0.00159 ± 0.00105 µM
- % of PrRP31, GPR10 human receptor transfected in CHO cells [1]: 245%

Compound: CC[C@H](C)[C@H](NC(=O)CN(C)C(=O)[C@H](CCCNC(=N)N)NC(=O)CNC(=O)[C@@H](NC(=O)[C@H](Cc1ccc(O)cc1)NC(=O)[C@H](Cc1c[nH]c2ccccc12)NC(=O)[C@H](C)NC(=O)[C@@H]1CCCN1C(=O)[C@H](CC(N)=O)NC(=O)[C@@H](NC(=O)[C@H](CC(=O)O)NC(=O)[C@@H]1CCCN1C(=O)[C@@H](N)[C@@H](C)O)[C@@H](C)CC)[C@@H](C)O)C(=O)N[C@@H](CCCNC(=N)N)C(=O)N1CCC[C@H]1C(=O)N[C@H](C(=O)NCC(=O)N[C@@H](CCCNC(=N)N)C(=O)N[C@@H](Cc1ccccc1)C(N)=O)C(C)C [Analog 27] (H-TPDINPAWYTGR[Sar]IRPVGRF-NH2)
- % of PrRP31, RC-4B/C rat pituitary cells (rat PrRP receptor): 62%
- % of PrRP31, GPR10 human receptor transfected in CHO cells [1]: 86%

Compound: CCCCCCCCCCCCCCCC(=O)NCCCC[C@H](NC(=O)[C@@H]1CCCN1C(=O)[C@H](CC(N)=O)NC(=O)[C@@H](NC(=O)[C@H](CC(=O)O)NC(=O)[C@@H]1CCCN1C(=O)[C@@H](N)[C@@H](C)O)[C@@H](C)CC)C(=O)N[C@@H](Cc1c[nH]c2ccccc12)C(=O)N[C@@H](Cc1ccc(O)cc1)C(=O)N[C@@H](C)C(=O)N[C@@H](CO)C(=O)N[C@@H](CCCNC(=N)N)C(=O)NCC(=O)N[C@H](C(=O)N[C@@H](CCCNC(=N)N)C(=O)N1CCC[C@H]1C(=O)N[C@H](C(=O)NCC(=O)N[C@@H](CCCNC(=N)N)C(=O)N[C@@H](Cc1ccccc1)C(N)=O)C(C)C)[C@@H](C)CC [Analog 50] (H-TPDINPK(Palmitoyl)WYASRGIRPVGRF-NH2)
- Ki [1, 2]: 0.00564 ± 0.00035 µM
- % of PrRP31, GPR10 human receptor transfected in CHO cells [1]: 69%

Compound: CCCCCCCCCCCCCC(=O)N[C@H](C(=O)N1CCC[C@H]1C(=O)N[C@@H](CC(=O)O)C(=O)N[C@H](C(=O)N[C@@H](CC(N)=O)C(=O)N1CCC[C@H]1C(=O)N[C@@H](C)C(=O)N[C@@H](Cc1c[nH]c2ccccc12)C(=O)N[C@@H](Cc1ccc(O)cc1)C(=O)N[C@@H](C)C(=O)N[C@@H](CO)C(=O)N[C@@H](CCCNC(=N)N)C(=O)N1CCC[C@H]1C(=O)N[C@@H](Cc1ccccc1)C(=O)N[C@@H](CCCNC(=N)N)C(=O)N1CCC[C@H]1C(=O)N[C@H](C(=O)NCC(=O)N[C@@H](CCCNC(=N)N)C(=O)N[C@@H](Cc1ccccc1)C(N)=O)C(C)C)[C@@H](C)CC)[C@@H](C)O [Analog 34] (Myristoyl-TPDINPAWYASRPFRPVGRF-NH2)
- % of PrRP31, RC-4B/C rat pituitary cells (rat PrRP receptor): 587%
- % of PrRP31, GPR10 human receptor transfected in CHO cells [1]: 671%

Compound: CCCC[C@H](NC(=O)CNC(=O)[C@H](CCCNC(=N)N)NC(=O)[C@@H]1CCCN1C(=O)[C@H](Cc1ccc(O)cc1)NC(=O)[C@H](Cc1c[nH]c2ccccc12)NC(=O)[C@H](Cc1c[nH]cn1)NC(=O)[C@@H](NC(=O)[C@H](CC(=O)O)NC(=O)[C@H](C)NC(=O)[C@@H]1CCCN1C(=O)[C@H](CCCNC(=N)N)NC(=O)[C@H](CCC(N)=O)NC(=O)[C@H](Cc1c[nH]cn1)NC(=O)[C@@H](N)CO)[C@@H](C)O)C(=O)N[C@@H](Cc1ccccc1)C(=O)N1CCC[C@H]1C(=O)N[C@H](C(=O)N[C@H](C(=O)NCC(=O)N[C@@H](CCCNC(=N)N)C(=O)N[C@H](C(=O)N[C@H](C(=O)N[C@@H](C)C(=O)N[C@@H](CCCNC(=N)N)C(=O)N[C@@H](CC(N)=O)C(=O)NCC(=O)N[C@@H](CCC(=O)O)C(=O)N[C@H](C(=O)N[C@@H](CO)C(=O)N[C@@H](CCCNC(=N)N)C(=O)O)C(C)C)[C@@H](C)O)[C@@H](C)CC)[C@@H](C)CC)[C@@H](C)O [Analog 19] (H-SHQRPADTHWYPRG[Nle]FPTIGRITARNGEVSR-OH; N-terminus and C-terminus assumed)
- Ki (rat PrRP receptor): 1320 ± 1260 µM
- % of PrRP31, RC-4B/C rat pituitary cells (rat PrRP receptor): 0.00004%

Compound: CCCCCCCCCCCCCCCC(=O)N[C@@H](CO)C(=O)N[C@@H](CCCNC(=N)N)C(=O)N[C@H](C(=O)N[C@@H](Cc1c[nH]cn1)C(=O)N[C@@H](CCCNC(=N)N)C(=O)N[C@@H](Cc1c[nH]cn1)C(=O)N[C@@H](CO)C(=O)N[C@@H](CCSC)C(=O)N[C@@H](CCC(=O)O)C(=O)N[C@H](C(=O)N[C@@H](CCCNC(=N)N)C(=O)N[C@H](C(=O)N1CCC[C@H]1C(=O)N[C@@H](CC(=O)O)C(=O)N[C@H](C(=O)N[C@@H](CC(N)=O)C(=O)N1CCC[C@H]1C(=O)N[C@@H](C)C(=O)N[C@@H](Cc1c[nH]c2ccccc12)C(=O)N[C@@H](Cc1ccc(O)cc1)C(=O)N[C@@H](C)C(=O)N[C@@H](CO)C(=O)N[C@@H](CCCNC(=N)N)C(=O)NCC(=O)N[C@H](C(=O)N[C@@H](CCCNC(=N)N)C(=O)N1CCC[C@H]1C(=O)N[C@H](C(=O)NCC(=O)N[C@@H](CCCNC(=N)N)C(=O)N[C@@H](Cc1ccccc1)C(=O)NOC)C(C)C)[C@@H](C)CC)[C@@H](C)CC)[C@@H](C)O)[C@@H](C)CC)[C@@H](C)O [Analog 45] (Palmitoyl-SRTHRHSMEIRTPDINPAWYASRGIRPVGR-X1)
- % of PrRP31, GPR10 human receptor transfected in CHO cells [1]: 92%

Compound: CCCCCCCCCCCCCCCC(=O)NCCCC[C@H](NC(=O)[C@@H](NC(=O)[C@H](CC(=O)O)NC(=O)[C@@H]1CCCN1C(=O)[C@@H](N)[C@@H](C)O)[C@@H](C)CC)C(=O)N1CCC[C@H]1C(=O)N[C@@H](C)C(=O)N[C@@H](Cc1c[nH]c2ccccc12)C(=O)N[C@@H](Cc1ccc(O)cc1)C(=O)N[C@@H](C)C(=O)N[C@@H](CO)C(=O)N[C@@H](CCCNC(=N)N)C(=O)NCC(=O)N[C@H](C(=O)N[C@@H](CCCNC(=N)N)C(=O)N1CCC[C@H]1C(=O)N[C@H](C(=O)NCC(=O)N[C@@H](CCCNC(=N)N)C(=O)N[C@@H](Cc1ccccc1)C(N)=O)C(C)C)[C@@H](C)CC [Analog 49] (H-TPDIK(Palmitoyl)PAWYASRGIRPVGRF-NH2)
- Ki [1, 2]: 0.00434 ± 0.00045 µM
- % of PrRP31, GPR10 human receptor transfected in CHO cells [1]: 90%

Compound: SRAHQHSMETRTPDINPAWYTGRGIRPVGRF-NH2 [Rat PrRP31, reference compound]
- Ki [1]: 0.00389 ± 0.00112 µM
